Experimental data taken from patent publication US9353150B2, “Substituted pyrazino[1′,2′:1 ,5]pyrrolo[2,3-b]-indole-1,4-diones for cancer treatment” (Massachusetts Institute of Technology, priority 2012, dated 2016).
“Also recorded” adds a separate entry of the source. Where two headings read alike, the source gives them in different places.

How the values were obtained:
MCF-7 (breast carcinoma) = assay: 72-hour IC50 determination for adherent cells using sulforhodamine B (SRB); assay type: cell-based, human; conditions: error is standard deviation of the mean, n ≧ 3, read-out: MCF-7, 72-hour IC50 (Table E1-2)
Description: (§1) Certain provided compounds were tested in culture against a panel of three supplementary human cancer cell lines representing three additional tumor histologies (H460, lung carcinoma; 786-O, renal carcinoma; MCF-7, breast carcinoma). As shown in Table E1-2, the ETPs retain their potency across the cell lines. In some embodiments, a provided compound is active in all cell lines. In some embodiments, a provide compound can be used to selectively target certain cells and/or cancers. […] Without the intention to be limited, Applicant notes that certain cell lines could be more sensitive to provided compounds; for example, U-937 and HeLa are slightly more sensitive to the ETPs than the other three cell lines.
(§2) Cells were grown in media supplemented with fetal bovine serum (FBS) and antibiotics ([…]). Specifically, experiments were performed using the following cell lines and media compositions: U-937, HeLa, H460, and 786-O (RPMI-1640+10% FBS), and MCF7 (EMEM+10% FBS). Cells were incubated at 37° C. in a 5% CO2, 95% humidity atmosphere.
(§3) Adherent cells (HeLa, H460, 786-O, and MCF7) were added into 96-well plates (5,000 cells/well for HeLa cell line; 2,000 cells/well for H460, 786-O, and MCF7 cell lines) in 100 μL media and were allowed to adhere for 2-3 hours. Compounds were solubilized in DMSO as 100× stocks, added directly to the cells (100 μL final volume), and tested over a range of concentrations in triplicate (1% DMSO final) on a half-log scale. Concentrations tested ranged from […] to 10 μM, depending on the potency of the compound. DMSO and cell-free wells served as the live and dead control, respectively. After 72 hours of continuous exposure, the plates were evaluated using the SRB colorimetric assay as described previously (Vichai, V.; Kirtikara, K. Nature Prot. 2006, 1, 1112). Briefly, media was removed from the plate, and cells were fixed by the addition of 100 μL cold 10% trichloroacetic acid in water. After incubating at 4° C. for an hour, the plates were washed in water and allowed to dry. Sulforhodamine B was added as a 0.057% solution in 1% acetic acid (100 μL), and the plates were incubated at room temperature for 30 minutes, washed in 1% acetic acid, and allowed to dry. The dye was solubilized by adding 10 mM Tris base solution (pH 10.5, 200 μL) and incubating at room temperature for 30 minutes. Plates were read at λ=510 nm. IC50 values were determined from three or more independent experiments using TableCurve (San Jose, Calif.).

H460 (lung carcinoma) = assay: as above; assay type: cell-based, human; conditions: error is standard deviation of the mean, n ≧ 3, read-out: H460, 72-hour IC50 (Table E1-2)
Description: as §1, §2, §3

786-O (renal carcinoma) = assay: as above; assay type: cell-based, human; conditions: error is standard deviation of the mean, n ≧ 3, read-out: 786-O, 72-hour IC50 (Table E1-2)
Description: as §1, §2, §3

[1] = system: HeLa (cervical carcinoma); assay: as above; assay type: cell-based, human
Procedure, shortened: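 HeLa cells were seeded at 5,000 cells/well in RPMI-1640 with 10% FBS and exposed continuously for 72 hours to compounds on a half-log scale (1% DMSO final, triplicate). Cells were then TCA-fixed, stained with sulforhodamine B and read at 510 nm. IC50 values came from three or more independent experiments.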

[2] = system: U-937 (hystiocytic lymphoma); assay: 72-hour IC50 determination for non-adherent cells using MTS; assay type: cell-based, human
Procedure, shortened: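 U-937 cells (5,000/well) in RPMI-1640 + 10% FBS were exposed to compounds in triplicate (1% DMSO final) for 72 h at 37 °C. Viability was read by PMS/MTS absorbance at 490 nm, with DMSO wells as live and cell-free wells as dead controls. IC50 came from three or more independent experiments.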

[3] = Stability observed on isolation (concentration / solution); conditions: observed during isolation and characterization
human cancer cell lines = assay: Anticancer activity in human cancer cell lines, not tied to one cell line; assay type: cell-based; conditions: for anticancer activity, in words: human cancer cell lines, 72-hour exposure
Description: Certain synthesized compounds were screened for their ability to induce death in two human cancer cell lines: U-937 (leukemic monocyte lymphoma) and HeLa (cervical cancer).
as §1, §3
In a 96-well plate, compounds were pre-added as DMSO stocks in triplicate to achieve a final concentration of 1%. DMSO and cell-free wells served as the live and dead control, respectively. U-937 (5,000 cells/well) cells were distributed in 100 μL media to the compound-containing plate. After 72 hours, cell viability was assessed by adding 20 μL of a PMS/MTS solution (Cory, A. H.; Owen, T. C.; Barltrop, J. A.; Cory, J. G. Cancer Commun. 1991, 3, 207) to each well, allowing the dye to develop at 37° C. until the live control had processed MTS, and reading the absorbance at λ=490 nm. IC50 values were determined from three or more independent experiments using TableCurve (San Jose, Calif.).

[4] = Homo sapiens, MCF7, 72-hour exposure
[5] = Homo sapiens, NCI-H460, 72-hour exposure
[6] = Homo sapiens, 786-0, 72-hour exposure
[7] = Homo sapiens, HeLa, 72-hour exposure, SRB, error is standard deviation of the mean, n ≧ 3, read-out: HeLa, 72-hour IC50 (Table E1-1)
[8] = Homo sapiens, HeLa, 72-hour exposure, SRB, error is standard deviation of the mean, n ≧ 3, read-out: HeLa, 72-hour IC50 (Table E1-2)
[9] = Homo sapiens, U-937, 72-hour exposure, MTS, error is standard deviation of the mean, n ≧ 3, read-out: U-937, 72-hour IC50 (Table E1-1)
[10] = Homo sapiens, U-937, 72-hour exposure, MTS, error is standard deviation of the mean, n ≧ 3, read-out: U-937, 72-hour IC50 (Table E1-2)
[11] = 72-hour exposure, SRB, error is standard deviation of the mean, n ≧ 3, read-out: HeLa, 72-hour IC50 (Table E1-1)
[12] = 72-hour exposure, SRB, error is standard deviation of the mean, n ≧ 3, read-out: HeLa, 72-hour IC50 (Table E1-2)
[13] = 72-hour exposure, MTS, error is standard deviation of the mean, n ≧ 3, read-out: U-937, 72-hour IC50 (Table E1-1)
[14] = 72-hour exposure, MTS, error is standard deviation of the mean, n ≧ 3, read-out: U-937, 72-hour IC50 (Table E1-2)

| SMILES | IC50 (MCF-7 (breast carcinoma); [4]) | IC50 (H460 (lung carcinoma); [5]) | IC50 (786-O (renal carcinoma); [6]) | IC50 [1, 7] | IC50 [1, 8] | IC50 [2, 9] | IC50 [2, 10] | IC50 (MCF-7 (breast carcinoma); 72-hour exposure) | IC50 (H460 (lung carcinoma); 72-hour exposure) | IC50 (786-O (renal carcinoma); 72-hour exposure) | IC50 [1, 11] | IC50 [1, 12] | anticancer activity, in words (human cancer cell lines) | IC50 [2, 13] | IC50 [2, 14] | other results |
| --- | --- | --- | --- | --- | --- | --- | --- | --- | --- | --- | --- | --- | --- | --- | --- | --- |
| CN1C(=O)[C@@]23C[C@]4(c5c[nH]c6ccccc56)c5ccccc5N[C@@H]4N2C(=O)[C@@H]1SSS3 [Compound 29, C3-(Indol-3′-yl) epitrithiodiketopiperazine] | 0.217 ± 0.035 µM | 0.348 ± 0.11 µM | 0.168 ± 0.034 µM | 0.123 ± 0.029 µM | 0.123 ± 0.029 µM | 0.0245 ± 0.0074 µM | 0.0245 ± 0.0074 µM |  |  |  |  |  |  |  |  | stability upon concentration or in solution [3]: tends to degrade |
| CN1C(=O)[C@@]23C[C@]4(c5c[nH]c6ccccc56)c5ccccc5N(S(=O)(=O)c5ccccc5)[C@@H]4N2C(=O)[C@@H]1SSS3 [Compound 27, C3-(Indol-3′-yl) epitrithiodiketopiperazine] | 0.151 ± 0.031 µM | 0.146 ± 0.0069 µM | 0.145 ± 0.01 µM | 0.0275 ± 0.0092 µM | 0.0275 ± 0.0092 µM | 0.0366 ± 0.0024 µM | 0.0366 ± 0.0024 µM |  |  |  |  |  |  |  |  | stability upon concentration or in solution [3]: tends to degrade |
| CN1C(=O)[C@]23C[C@]4(F)c5ccccc5N(S(=O)(=O)c5ccccc5)[C@@H]4N2C(=O)[C@H]1SS3 [Compound 35, C3-Fluoro epidithiodiketopiperazines] |  |  |  |  |  |  |  | 0.093 ± 0.034 µM | 0.123 ± 0.05 µM | 0.064 ± 0.02 µM | 0.056 ± 0.021 µM | 0.056 ± 0.021 µM | intermediately good activity | 0.0213 ± 0.0087 µM | 0.0213 ± 0.0087 µM |  |
| CN1C(=O)[C@@]23C[C@]4(F)c5ccccc5N(S(=O)(=O)c5ccccc5)[C@@H]4N2C(=O)[C@@H]1SS3 [Compound 31, C3-Fluoro epidithiodiketopiperazines] |  |  |  |  |  |  |  | 0.218 ± 0.097 µM | > 1 µM | 0.368 ± 0.078 µM | 1.53 ± 0.44 µM | 1.53 ± 0.44 µM | intermediately good activity | 0.0207 ± 0.0064 µM | 0.0207 ± 0.0064 µM |  |
| CN1C(=O)C23CC4(c5c[nH]c6ccccc56)c5ccccc5N(S(=O)(=O)c5ccccc5)C4N2C(=O)C1(C)SC(=S)S3 (centres unmarked) [Compound 64, C3-(Indo-3′-v)dithiepanethiones] |  |  |  |  |  |  |  | 0.21 ± 0.073 µM | 0.222 ± 0.072 µM | 0.266 ± 0.085 µM | 0.0253 ± 0.002 µM | 0.0253 ± 0.002 µM | competent anticancer agents | 0.024 ± 0.012 µM | 0.024 ± 0.012 µM |  |
| CN1C(=O)C23CC4(C56CC78SC(=S)S[C@](C)(C(=O)N7[C@H]5N(S(=O)(=O)c5ccccc5)c5ccccc56)N(C)C8=O)c5ccccc5N(S(=O)(=O)c5ccccc5)[C@@H]4N2C(=O)[C@@]1(C)SC(=S)S3 (some centres unmarked) [Compound 18, Dimeric bisdithiepanethione] | 0.0107 ± 0.0081 µM | 0.0185 ± 0.0027 µM | 0.0149 ± 0.0044 µM | 0.0011 ± 0.0008 µM | 0.0011 ± 0.0008 µM | 0.0029 ± 0.0021 µM | 0.0029 ± 0.0021 µM |  |  |  |  |  | competent anticancer agents; also recorded: active across the board |  |  |  |
| COc1ccc([C@]23C[C@@]45SS[C@@H](C(=O)N4[C@H]2N(S(=O)(=O)c2ccccc2)c2ccccc23)N(C)C5=O)cc1 [Compound 33, C3-(p-Methoxyphenyl)epidithiodiketopiperazine] | 0.063 ± 0.016 µM | 0.0467 ± 0.0053 µM | 0.083 ± 0.018 µM |  |  |  |  |  |  |  |  |  |  |  |  | IC50 ([1]; Homo sapiens, HeLa, 72 h, read-out: HeLa, 72-hour IC50 (Table E1-1)): 0.0222 ± 0.0109 µM; IC50 ([1]; Homo sapiens, HeLa, 72 h, read-out: HeLa, 72-hour IC50 (Table E1-2)): 0.0222 ± 0.0109 µM; IC50 ([1]; Homo sapiens, HeLa, 72 h, read-out: IC50 (HeLa)): 0.022 to 0.075 µM; change in activity across cell lines (human cancer cell lines; five cell lines of Table E1-2): 4 fold; IC50 ([2]; Homo sapiens, U-937, 72 h, read-out: IC50 (U-937)): 0.0028 to 0.0148 µM; IC50 ([2]; Homo sapiens, U-937, 72 h, read-out: U-937, 72-hour IC50 (Table E1-1)): 0.005 ± 0.0021 µM; IC50 ([2]; Homo sapiens, U-937, 72 h, read-out: U-937, 72-hour IC50 (Table E1-2)): 0.005 ± 0.0021 µM |
| CC(=O)S[C@H]1C(=O)N2[C@H]3N(S(=O)(=O)c4ccccc4)c4ccccc4[C@@]3(c3c[nH]c4ccccc34)C[C@]2(SC(C)=O)C(=O)N1C [Compound 44, C3-(Indol-3′-yl)bisthloaeetate] | 0.103 ± 0.037 µM | 0.149 ± 0.059 µM | 0.151 ± 0.007 µM | 0.0173 ± 0.0045 µM | 0.0173 ± 0.0045 µM | 0.0041 ± 0.0005 µM | 0.0041 ± 0.0005 µM |  |  |  |  |  | competent anticancer agents |  |  |  |
| CN1C(=O)[C@@]23C[C@]4([C@]56C[C@@]78SS[C@@](CO)(C(=O)N7[C@H]5Nc5ccccc56)N(C)C8=O)c5ccccc5N[C@@H]4N2C(=O)[C@]1(CO)SS3 [Compound 4, (+)-chaetocin A] |  |  |  |  |  |  |  | 0.05 ± 0.016 µM | 0.053 ± 0.023 µM | 0.0265 ± 0.0077 µM | 0.0069 ± 0.002 µM | 0.0069 ± 0.002 µM | active across the board | 0.00081 ± 0.00015 µM | 0.00081 ± 0.00015 µM |  |
